Experiments:
[1] = tested on: undifferentiated 3T3-L1 cells; experiment: Preadipocyte viability, MTT assay; assay type: cell-based, mouse; details: 3 days, 2.5-25 μM
Method: Undifferentiated 3T3-LI cells were treated with COH-SR2, COH-SR3, COH-SR4, COH-SR7, LR23 or LR59 for 3 days at a concentration of 2.5 μM, 5 μM, 10 μM, 15 μM, 20 μM, or 25 μM. The cell viability for each treatment was determined by MTT assay (FIG. 7).

A375 = experiment: Colony formation assay, A375; assay type: cell-based, human; details: 5 μM
Method: (§1) Cell survival was evaluated using a standard colony-forming assay. In total, 1×10^5 cells/mL were incubated with COH-SR4 (1.5 μM or 5 μM) or elesclomol (5 μM) for 24 h, and aliquots of 50 or 100 μL were added to 60 mm size petri dishes, containing 4 mL culture medium. After 7 or 10 days, adherent colonies were fixed, stained with 0.5% methylene blue for 30 min and colonies were counted using the Innotech Alpha Imager HP (91).

H358 = experiment: Colony formation assay, H358; assay type: cell-based, human; details: 1.5 μM
Method: as §1
The effect of COH-SR4 was first examined in a NCI panel of cancer cell lines, the results of which indicated good activity of COH-SR4 towards lung cancer (FIG. 78A). […] Values are presented as mean±SD from two separate determinations with eight replicates each (n=16) (FIG. 78B). The COH-SR4 treatment exerted a significant inhibitory effect on the survival of lung cancer cells [IC50: H1417 cells-1.2±0.2 μM, H1618 cells-1.5±0.2 μM, H358 cells-2.1±0.2 μM and H520 cells-2.4±0.3 μM]. […] Following initial screening for the anticancer activity of COH-SR4, the effect of COH-SR4 on clonogenic potential was studied. Standard colony-forming assay was performed and the colonies were counted using Innotech Alpha Imager HP. […] The effect of COH-SR4 on induction of apoptosis was further investigated. […] TUNEL assay was performed using Promega fluorescence detection kit and examined using Zeiss LSM 510 META laser-scanning fluorescence microscope with filters 520 and 620 nm. […]

AMPK, ACC = experiment: AMP:ATP ratio and AMPK/ACC phosphorylation in liver of db/db mice; assay type: in vivo, mouse; details: 5 weeks
Method: ATP production from cells treated with test compounds were measured using the Luminescent ATP Detection Assay Kit. AMP, ATP and ADP were measured by UV-HPLC.
All animal experiments were carried out in accordance with the protocols approved by the Institutional Animal Care and Use Committee of the City of Hope. Nine-week old male C57BL/6J mice fed on high fat diet (HFD, 60% fat) and 10-week old db/db mice were given COH-SR4 (5 mg/kg B.W.) or vehicle (corn oil) via oral gavage every other day for six and five weeks, respectively. Oral glucose tolerance test was performed on animals after an overnight fast. All other metabolic parameters were measured at the end of study. Liver samples were stained with H&E and Oil Red O.
Total intracellular ATP production in cells treated with either 5 μM COH-SR4 or 5 μM FCCP was measured by bioluminescence assay and expressed as percentage of time-matched vehicle (DMSO) control (FIG. 84A). Intracellular AMP: ATP ratios increased in HepG2 liver carcinoma cells following 1 h treatment with either 5 μM COH-SR4 or 5 μM FCCP (FIG. 84B) and in liver of db/db mice treated with COH-SR4 (5 mg/kg B.W.) for 5 weeks (FIG. 84C). All data represented are mean±SEM, *P<0.05.
Treatment with the AMPK inhibitor Compound C (20 μM) diminished AMPK activation and ACC phosphorylation by either uncoupler COH-SR4 or FCCP (FIG. 84F).

HAVSMC = experiment: Colony formation assay, HAVSMC; assay type: cell-based, human; details: for colony forming potential: vs untreated control
Method: as §1

H358 and H520 cells = experiment: COH-SR4 cytotoxicity after siRNA knock-down of AMPK, XTT; assay type: cell-based, human
Method: The effects of COH-SR4 on cell viability were assessed in quadruplicate samples using the 2,3-bis (2-methoxy-4-nitro-5-sulfophenly)-5-[(phenylamino) carbonyl]-2H-tetrazolium hydroxide (XTT) assay. Briefly, 20,000 cells were seeded and incubated in 96-well, flat-bottomed plates in 10% FBS-supplemented culture medium 24 h before drug treatment. After 24 h incubation at 37° C., cells were then exposed to the indicated concentrations of drug at 37° C. in 5% CO2 for 48 h. The medium was removed and replaced with 100 μL fresh medium containing 50 μL of the activated-XTT solution to each well, and the cells were further cultured in the CO2 incubator at 37° C. for 4 h. Absorbance was determined on a plate reader at 475 nm.
AMPK was knocked down by siRNA and assessed the impact on COH-SR4-induced cytotoxicity. […] Thus, the in-vitro analyses of critical signaling proteins of cell proliferation further supported the anti-cancer effects of COH-SR4 in lung cancer cells.

A2058 = experiment: Colony formation assay, A2058; assay type: cell-based, human
Method: Cell survival was evaluated using a standard colony-forming assay. […] After 7 or 10 days, adherent colonies were fixed, stained with 0.5% methylene blue for 30 min and colonies were counted using the Innotech Alpha Imager HP (91).

U251 glioma cells = experiment: Combination index with chemotherapy drugs, U251; assay type: cell-based
Method: Effects of combination of COH-SR4 and a chemotherapy drug such as TMZ, SN38, CPT-11, and 5-FU were studied by combination index (CI) theorem and plot using the method described in Chou (“Experimental Design, and Computerized Simulation of Synergism and Antagonism in Drug Combination Studies,” Pharmacological Reviews, Vol. 58, No. 3), which is incorporated herein by reference in its entirety.
COH-SR4 and a chemotherapy drug (TMZ, SN38, CPT-11, or 5-FU) were dissolved in DMSO individually, and then diluted to the appropriate concentration in the same cell culture media before applying to cells of each cell line. After 4 days, the amount of ATP present in the cell lysates were assessed using Progema's CellGlo kit. The CI of each combination of COH-SR4 and the chemotherapy drug was calculated and plotted against the concentration of COH-SR4 for each concentration of the chemotherapy drug used.

O=C(Nc1cc(Cl)cc(Cl)c1)Nc1cc(Cl)cc(Cl)c1 [COH-SR4, 1,3-bis(3,5-dichlorophenyl) urea]
growth of undifferentiated preadipocytes (MTT) [1]: inhibited growth of undifferentiated 3T3-L1 cells | colony formation (A375): 42±6% | colony formation (H358): 47±7% | intracellular AMP:ATP ratios in liver (AMPK, ACC; 5 mg/kg B.W.): increased | AMPK and ACC phosphorylations in liver (AMPK, ACC): Increased AMPK and ACC phosphorylations | colony formation in normal cells (HAVSMC; 1.5 μM): did not result in significant inhibition of colony formation | colony forming potential (HAVSMC; Example 18, FIG. 65B): 96±4% | colony forming potential (HAVSMC; FIG. 67B, 5 μM): 95±4% | cytotoxicity of COH-SR4 after knock-down of AMPK (H358 and H520 cells): significant reversal in the cytotoxicity | colony formation (A2058; 5 μM): 43±7% | colony formation (A2058; 10 μM, vs untreated control): 37±4% | combination effect (CI) with CPT-11 (U251 glioma cells; COH-SR4 <0.5 μM + CPT-11 <0.125 μM): Synergism | combination effect (CI) with SN-38 (U251 glioma cells; COH-SR4 <0.5 μM + SN-38 <0.001 μM): Synergism | combination effect (CI) with TMZ (U251 glioma cells; COH-SR4 <0.5 μM + TMZ 12.5 μM, 4 days): Synergism | combination effect (CI) with SN-38 (U251 glioma cells; COH-SR4 >0.5 μM + SN-38 <0.003 μM): Additive effects | combination effect (CI) with TMZ (U251 glioma cells; COH-SR4 >0.65 μM + TMZ 100 μM): Additive effects | combination effect (CI) with CPT-11 (U251 glioma cells; COH-SR4 >0.675 μM + CPT-11 >0.5 μM): Additive effects
